Reference: PubChem BioAssay AID743496 (The Scripps Research Institute Molecular Screening Center, 2014)
Active and inactive are the calls of the source. The rule behind the calls is not given here.

The compounds below were run on Ga16-expressing cells, calcium fluorescence, counterscreen for TAAR1 agonists (assay: nonselective Ga16 agonists, potency, SAR follow-up, counter-screen for TAAR1 agonist project, cell-based, fluorescence, dose response, MedChem round 1 (AID 743496)).

SMILES	EC50
CC1CN(CCC(=O)c2ccc3c(c2)OCCO3)CC1c1ccccc1 (stereo unspecified)	> 29.9 µM (inactive)
O=C(CCN1CCC(c2ccccc2)C1)c1ccccc1 (stereo unspecified)	> 29.9 µM (inactive)
NC(=O)CCN1C[C@H](c2ccccc2)[C@@H]2[C@H]1C1CCN2CC1	> 29.9 µM (inactive)
Cc1ccc(C(=O)CCN2CCC(c3ccccc3)C2)cc1 (stereo unspecified)	> 29.9 µM (inactive)
O=C(CCN1CCC(O)(c2ccccc2)C1)c1ccc2c(c1)OCCO2 (stereo unspecified)	> 29.9 µM (inactive)
O=C(CCN1C[C@@H](C(=O)O)[C@H](c2ccccc2)C1)NC1CCCC1	> 29.9 µM (inactive)
O=C(CCN1C[C@@H](C(=O)O)[C@H](c2ccccc2)C1)NCc1cccs1	> 29.9 µM (inactive)
O=C(CCN1CCC(O)(c2ccc(F)cc2)C1)c1ccc2c(c1)OCCO2 (stereo unspecified)	> 29.9 µM (inactive)
CC(CN1CCC(c2ccccc2)C1)C(=O)c1ccc2c(c1)OCCO2 (stereo unspecified)	> 29.9 µM (inactive)
O=C(CCN1C[C@@H](C(=O)O)[C@H](c2cccc(F)c2)C1)NC1CC1	> 29.9 µM (inactive)
CC(CN1CCCC1Cc1ccccc1)C(=O)c1ccc2c(c1)OCCO2 (stereo unspecified)	> 29.9 µM (inactive)
